Data reported in US10280170B2, “Substituted 4,5,6,7-tetrahydro-pyrazolo[1,5-a]pyrazine derivatives and 5,6,7,8-tetrahydro-4H-pyrazolo[1,5-a][1,4]diazepine derivatives as Ros1 inhibitors” (Janssen Pharmaceutica NV, priority 2014, dated 2019).
Like-named read-outs stand apart in the source and are kept apart here.

Legend:
Ros1 enzyme = biological target: T1, Ros1 enzyme (Homo sapiens, UniProt P08922); assay: Ros1 enzymatic assay; assay type: biochemical; conditions: Ros1 enzymatic assay; read-out: ROS1 pIC50 (converted)
T1 construct: 0.5 μg/ml Ros1 enzyme
Summary of the method: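 Signal came from streptavidin-coupled imaging beads binding radiolabelled IRS-Tide after a 120 min room-temperature kinase reaction, quenched with 5 mM EDTA and 50 μM cold ATP. Enzyme mix held Ros1 at 0.5 μg/ml; substrate mix held 6 μg/ml IRS-Tide and 20 μM ATP.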

[1] = test system: Ros pY2274 in HCC78 cells; assay: pROS1 immunofluorescence assay in HCC78 cells; assay type: cell-based; conditions: Homo sapiens, read-out: HCC78-pRos1 pIC50 (converted)
Method: pROS1 Immunofluorescence Assay in HCC78 Cells
Approximately 20000 HCC78 non-small cell lung cancer cells in 180 μl of cell culture medium (RPMI-1640, 10% FBS, 2 mM L-Glutamine, 10 mM Hepes, 1 mM sodium pyruvate, 4.5 g/L glucose, 1.5 g/L sodium bicarbonate, 25 μg/ml Gentamycin) were seeded in each well of a 96-well polystyrene, poly-D-lysine coated plate and incubated at 37° C. and 5% CO2. After 24 hours, compounds were diluted in cell culture medium from which 20 μl was added to the wells containing cells and incubated for 4 hours at 37° C. and 5% CO2. The medium was removed and the cells were fixed by adding 100 μl of 5% formaldehyde in TBS (tris-buffered saline) (50 mM Tris.HCl, pH 7.4, 150 mM NaCl) and incubating for 15 minutes at room temperature. The formaldehyde was removed and replaced with methanol for 10 minutes at room temperature, after which the cells were washed 3 times with TBS containing 1% Triton X-100 and incubated in Odyssee (Li-Cor) blocking buffer for 1 hour at room temperature. The cells were then incubated with the primary rabbit antibody directed against Ros pY2274 (cst-3078) diluted 1/200 in blocking buffer for 24 hours at room temperature. The cells were washed three times with TBS containing 0.1% Triton X-100 and incubated with a secondary anti-rabbit antibody conjugated to the fluorescent dye Alexafluor 680 in blocking buffer for 1 hour at room temperature. The cells were washed three times with TBS containing 0.1% Triton X-100 and left to dry before measuring RFUs (Relative Fluorescence Units) at 700 nm using a fluorescence imager.
The same experiment was performed using total Ros1 antibody (sc-6347) diluted 1/1000 instead of Ros1 pY2274 antibody and an anti-goat antibody conjugated to IRDye800cw as a secondary antibody. RFUs were measured at […]. The signals from total Ros1 detection were used to normalize the Ros1 pY2274 values.

[2] = biological target: Ba/F3 cells containing Ros1 with a mutation at the gatekeeper residue (L2026M) (Homo sapiens, UniProt P08922, L2026M, cells depend on it, form not given); assay: Ba/F3-Ros1 cell proliferation assay, L2026M gatekeeper mutant; assay type: cell-based, murine; conditions: without IL-3
Summary of the method: (§1)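 Ba/F3 cells expressing wild-type, L2026M or G2032R Ros1 (20000 per well) were incubated with DMSO-solubilized compounds in phenol red-free RPMI-1640 with 10% FBS and 2 mM L-glutamine at 37 °C, 5% CO2 for 24 hours. Viability was then read by Alamar Blue fluorescence (ex 540/em 590 nm) after 4 h.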

[3] = test system: Ba/F3 cells containing Ros1 wild-type protein + IL-3; assay: Ba/F3-Ros1 cell proliferation counter-screen, wild-type protein in the presence of 10 ng/ml murine IL-3; assay type: cell-based; conditions: Mus musculus, BaF3, 24 h, read-out: BaF3-ROS1 + IL3 pIC50 (converted)
Summary of the method: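 Wild-type Ros1 Ba/F3 cells, cultured with 10 ng/ml murine IL-3, are exposed to compound for 24 h at 37 °C; Alamar Blue fluorescence after 4 h reports cell viability.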

[4] = biological target: T2, Ba/F3 cells containing Ros1 wild-type protein (Homo sapiens, UniProt P08922, cells depend on it, form not given); assay: Ba/F3-Ros1 cell proliferation assay, wild-type Ros1; assay type: cell-based, murine; conditions: without IL-3
T2 construct: The background only speaks of 'a number of different unrelated proteins' and names SLC34A2-ROS1 for HCC78 cells
Summary of the method: as §1

[5] = test system: HCC78 non-small cell lung cancer cells; assay: HCC78 cell proliferation assay; assay type: cell-based; conditions: Homo sapiens, HCC78, 96 h, read-out: HCC-78 PROL pEC50 (converted)
Summary of the method: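 HCC78 NSCLC cells (~1000/well) in RPMI-1640 with 10% FBS were treated 24 h after seeding and exposed to compound for 4 days at 37 °C. Viability was read by MTT, with absorbance at 538 nm after DMSO/glycine solubilization.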

[6] = HCC78 cells, 4 hours, Ros pY2274 normalized to total Ros1
[7] = counter-screen, wild-type, 10 ng/ml murine IL-3

T2 sequence (P08922 whole entry, stated change not applied): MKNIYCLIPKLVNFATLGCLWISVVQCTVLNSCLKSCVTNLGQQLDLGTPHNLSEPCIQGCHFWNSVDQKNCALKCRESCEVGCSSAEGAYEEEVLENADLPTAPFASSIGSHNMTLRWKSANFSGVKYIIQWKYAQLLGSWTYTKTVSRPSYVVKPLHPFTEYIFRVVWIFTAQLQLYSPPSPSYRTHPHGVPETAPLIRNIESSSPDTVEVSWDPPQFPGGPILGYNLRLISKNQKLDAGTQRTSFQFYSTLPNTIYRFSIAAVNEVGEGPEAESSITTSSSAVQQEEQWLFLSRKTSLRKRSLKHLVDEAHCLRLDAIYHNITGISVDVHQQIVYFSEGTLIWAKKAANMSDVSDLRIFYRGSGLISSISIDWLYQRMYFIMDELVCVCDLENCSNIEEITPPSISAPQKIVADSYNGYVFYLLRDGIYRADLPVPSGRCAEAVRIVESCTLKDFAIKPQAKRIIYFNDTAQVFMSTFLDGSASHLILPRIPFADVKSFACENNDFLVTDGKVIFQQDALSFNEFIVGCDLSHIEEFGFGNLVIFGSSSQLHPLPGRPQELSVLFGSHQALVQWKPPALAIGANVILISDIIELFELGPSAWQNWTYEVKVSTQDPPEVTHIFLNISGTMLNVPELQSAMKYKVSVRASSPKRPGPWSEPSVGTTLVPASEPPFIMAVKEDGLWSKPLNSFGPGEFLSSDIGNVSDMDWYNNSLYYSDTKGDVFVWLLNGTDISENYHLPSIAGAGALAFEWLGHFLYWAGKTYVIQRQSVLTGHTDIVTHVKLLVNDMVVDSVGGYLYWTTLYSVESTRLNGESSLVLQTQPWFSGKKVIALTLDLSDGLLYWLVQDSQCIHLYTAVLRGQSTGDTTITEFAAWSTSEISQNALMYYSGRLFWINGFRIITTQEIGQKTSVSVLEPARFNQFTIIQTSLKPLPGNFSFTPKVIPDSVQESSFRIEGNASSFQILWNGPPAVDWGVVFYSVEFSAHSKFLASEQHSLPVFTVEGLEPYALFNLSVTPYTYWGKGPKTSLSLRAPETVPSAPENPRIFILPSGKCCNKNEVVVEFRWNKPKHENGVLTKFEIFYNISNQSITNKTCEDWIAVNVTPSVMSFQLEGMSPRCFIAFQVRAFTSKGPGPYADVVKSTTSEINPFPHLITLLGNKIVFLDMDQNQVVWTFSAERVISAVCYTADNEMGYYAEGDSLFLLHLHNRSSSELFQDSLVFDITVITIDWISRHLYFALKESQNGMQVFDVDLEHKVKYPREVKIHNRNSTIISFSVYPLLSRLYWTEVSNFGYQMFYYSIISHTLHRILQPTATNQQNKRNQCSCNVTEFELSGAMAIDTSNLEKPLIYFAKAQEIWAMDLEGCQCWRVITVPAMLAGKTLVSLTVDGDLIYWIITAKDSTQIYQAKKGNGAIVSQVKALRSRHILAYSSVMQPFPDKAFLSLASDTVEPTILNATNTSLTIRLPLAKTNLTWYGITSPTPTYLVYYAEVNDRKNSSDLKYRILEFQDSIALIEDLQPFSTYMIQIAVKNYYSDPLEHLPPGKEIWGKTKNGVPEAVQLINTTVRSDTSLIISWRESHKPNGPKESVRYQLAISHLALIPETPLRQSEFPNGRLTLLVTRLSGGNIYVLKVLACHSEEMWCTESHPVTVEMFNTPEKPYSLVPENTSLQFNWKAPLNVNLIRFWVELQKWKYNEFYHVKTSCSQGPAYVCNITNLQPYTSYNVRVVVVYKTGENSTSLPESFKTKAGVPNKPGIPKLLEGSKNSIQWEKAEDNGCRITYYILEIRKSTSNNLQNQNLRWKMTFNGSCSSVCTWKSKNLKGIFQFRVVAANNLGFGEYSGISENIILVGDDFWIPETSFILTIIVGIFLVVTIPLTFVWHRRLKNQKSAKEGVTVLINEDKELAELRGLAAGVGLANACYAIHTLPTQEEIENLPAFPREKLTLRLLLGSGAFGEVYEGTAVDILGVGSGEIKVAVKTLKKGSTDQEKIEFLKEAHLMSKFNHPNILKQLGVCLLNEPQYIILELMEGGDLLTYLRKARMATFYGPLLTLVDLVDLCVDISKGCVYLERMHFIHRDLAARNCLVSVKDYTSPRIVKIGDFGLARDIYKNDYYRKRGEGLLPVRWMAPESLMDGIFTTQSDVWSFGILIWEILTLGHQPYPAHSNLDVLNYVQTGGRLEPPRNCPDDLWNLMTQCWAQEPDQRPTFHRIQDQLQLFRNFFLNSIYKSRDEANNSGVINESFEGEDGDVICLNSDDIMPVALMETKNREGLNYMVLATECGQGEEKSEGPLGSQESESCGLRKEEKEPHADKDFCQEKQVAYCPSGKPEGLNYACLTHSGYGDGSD
Ba/F3 cells containing Ros1 with a mutation at the gatekeeper residue (L2026M), sequence (P08922 whole entry L2026M, form open): as the sequence (P08922 whole entry, stated change not applied) above, with L2026M counted along it
T1 sequence (P08922 28-2347): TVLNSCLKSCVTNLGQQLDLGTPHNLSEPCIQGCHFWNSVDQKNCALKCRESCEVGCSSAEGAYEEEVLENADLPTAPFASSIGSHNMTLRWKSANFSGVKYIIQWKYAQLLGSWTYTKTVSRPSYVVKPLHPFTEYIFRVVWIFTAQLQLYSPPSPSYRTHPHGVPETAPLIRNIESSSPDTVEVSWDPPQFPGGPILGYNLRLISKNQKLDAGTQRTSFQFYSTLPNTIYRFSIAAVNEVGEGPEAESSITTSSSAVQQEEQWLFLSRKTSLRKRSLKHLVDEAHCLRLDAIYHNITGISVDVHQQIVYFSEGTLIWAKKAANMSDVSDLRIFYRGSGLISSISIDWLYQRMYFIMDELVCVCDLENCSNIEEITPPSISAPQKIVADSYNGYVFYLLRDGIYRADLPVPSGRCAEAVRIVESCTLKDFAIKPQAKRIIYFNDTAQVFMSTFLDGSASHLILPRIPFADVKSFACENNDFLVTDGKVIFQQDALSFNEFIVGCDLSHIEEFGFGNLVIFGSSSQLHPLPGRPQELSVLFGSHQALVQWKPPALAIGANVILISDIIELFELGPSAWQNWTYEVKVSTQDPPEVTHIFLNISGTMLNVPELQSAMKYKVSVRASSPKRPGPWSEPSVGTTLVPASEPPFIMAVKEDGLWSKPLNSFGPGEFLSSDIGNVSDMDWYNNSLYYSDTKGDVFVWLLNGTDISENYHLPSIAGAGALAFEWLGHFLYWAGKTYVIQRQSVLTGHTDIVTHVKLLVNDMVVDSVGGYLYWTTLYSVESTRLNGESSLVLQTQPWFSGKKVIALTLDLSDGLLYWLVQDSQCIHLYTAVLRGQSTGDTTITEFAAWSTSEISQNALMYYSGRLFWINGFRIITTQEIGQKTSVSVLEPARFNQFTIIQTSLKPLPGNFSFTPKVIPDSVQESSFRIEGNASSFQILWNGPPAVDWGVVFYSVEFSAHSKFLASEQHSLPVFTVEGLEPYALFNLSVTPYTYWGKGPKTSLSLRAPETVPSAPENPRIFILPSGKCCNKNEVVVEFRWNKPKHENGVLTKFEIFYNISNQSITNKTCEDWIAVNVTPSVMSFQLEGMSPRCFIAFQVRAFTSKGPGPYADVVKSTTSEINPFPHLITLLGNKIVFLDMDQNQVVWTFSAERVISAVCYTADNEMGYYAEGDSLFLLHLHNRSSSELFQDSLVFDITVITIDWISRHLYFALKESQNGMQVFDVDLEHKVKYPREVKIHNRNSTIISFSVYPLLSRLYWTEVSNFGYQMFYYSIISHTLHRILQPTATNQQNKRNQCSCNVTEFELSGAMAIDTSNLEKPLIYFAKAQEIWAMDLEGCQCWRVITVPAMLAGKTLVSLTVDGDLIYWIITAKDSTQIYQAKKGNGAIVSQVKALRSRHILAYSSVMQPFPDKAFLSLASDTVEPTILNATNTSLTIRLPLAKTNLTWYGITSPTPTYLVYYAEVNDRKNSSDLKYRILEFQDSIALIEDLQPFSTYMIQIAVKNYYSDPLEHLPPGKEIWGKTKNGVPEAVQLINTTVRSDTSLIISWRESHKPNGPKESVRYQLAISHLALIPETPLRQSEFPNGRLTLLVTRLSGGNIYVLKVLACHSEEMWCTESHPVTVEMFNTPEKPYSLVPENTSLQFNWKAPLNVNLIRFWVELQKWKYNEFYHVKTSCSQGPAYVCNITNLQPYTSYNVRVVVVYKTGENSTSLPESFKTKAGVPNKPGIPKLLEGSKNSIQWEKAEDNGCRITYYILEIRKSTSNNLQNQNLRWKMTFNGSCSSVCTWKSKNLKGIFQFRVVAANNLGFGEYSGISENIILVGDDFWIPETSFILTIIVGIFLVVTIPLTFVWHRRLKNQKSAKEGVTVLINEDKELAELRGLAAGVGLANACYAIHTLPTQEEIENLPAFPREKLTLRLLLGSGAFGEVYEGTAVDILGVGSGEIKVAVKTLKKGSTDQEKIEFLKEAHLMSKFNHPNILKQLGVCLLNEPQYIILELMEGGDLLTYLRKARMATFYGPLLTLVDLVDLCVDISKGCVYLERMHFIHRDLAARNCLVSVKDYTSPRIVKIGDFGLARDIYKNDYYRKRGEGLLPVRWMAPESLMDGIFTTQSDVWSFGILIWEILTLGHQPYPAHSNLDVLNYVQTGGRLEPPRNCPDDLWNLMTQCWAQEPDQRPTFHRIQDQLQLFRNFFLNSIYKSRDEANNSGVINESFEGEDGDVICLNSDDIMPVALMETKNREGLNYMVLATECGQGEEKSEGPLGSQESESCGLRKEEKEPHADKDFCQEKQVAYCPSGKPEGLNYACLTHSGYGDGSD

Compound | IC50 (Ros1 enzyme) | IC50 ([1]; HCC78, 4 h) | melting point | Ba/F3 Ros1 L2026M (-IL-3) pIC50 [2] | CC50 [3] | BaF3-ROS1-IL3 pIC50 [4] | EC50 [5] | IC50 [1, 6] | CC50 [3, 7] | EC50 ([5]; HCC78 cells, 4 days, MTT)
O=C1NCCn2nc(-c3ccncc3)c(-c3ccc(OCc4ccc(C5CC5)nc4)cc3)c21 [Compound 3] | 0.0794 µM | 0.0794 µM | 276 °C | 7.0 | > 10 µM | 7.3 | 0.794 µM |  |  | 
O=C1NC2(CC2)Cn2nc(-c3ccncc3)c(-c3ccc(OCc4ccc(C5CC5)cc4)cc3)c21 [Compound 5] | 0.0251 µM | 0.0501 µM | 239 °C | 7.5 | > 10 µM | 7.6 | 0.316 µM |  |  | 
COc1cc(-c2c(-c3ccncc3)nn3c2C(=O)NCC3)cnc1OCc1ccc(C(C)C)cc1 [Compound 8] | 0.00631 µM | 0.0251 µM | 135 °C | 7.8 | > 10 µM | 7.9 | 0.0398 µM |  |  | 
CC(C)(O)c1ccc(COc2ccc(-c3c(-c4ccncc4)nn4c3C(=O)NCC4)cc2)cc1 [Compound 9] | 0.631 µM |  | 290 °C | 6.2 |  | 6.4 |  | 2.51 µM | > 10 µM | 2 µM
CC(C)c1ccc(COc2ccc(-c3c(-c4ccncc4)nn4c3C(=O)NCC4)nc2)cc1 [Compound 12] | 0.316 µM | 0.501 µM | 84 °C | 6.7 | > 10 µM | 6.5 | 0.794 µM |  |  | 
CC(C)c1ccc(COc2ccc(-c3c(-c4ccncc4)nn4c3C(=O)NCC4)cc2C#N)cc1 [Compound 26] | 0.398 µM | 0.631 µM | 235 °C | 6.5 | > 10 µM | 6.6 | 0.794 µM |  |  | 
COc1cc(-c2c(-c3ccncc3)nn3c2C(=O)N(C)CC3)ccc1OCc1ccc(C(C)C)cc1 [Compound 33] | 0.01 µM | 0.0126 µM | 151 °C | 7.4 | > 10 µM | 7.7 | < 0.0316 µM |  |  | 
CC(C)c1ccc(COc2ccc(-c3c(-c4ccncc4)nn4c3C(=O)N(C)CC4)cc2)cc1 [Compound 48] | 0.0316 µM |  | 155 °C |  |  | 7.1 |  | 0.0631 µM | > 10 µM | 0.398 µM
CC(C)c1ncc(COc2ccc(-c3c(-c4ccncc4)nn4c3C(=O)NCC4)cc2)cn1 [Compound 103] | 1.26 µM | 3.98 µM | 235 °C |  | > 10 µM | 6.0 | 2 µM |  |  | 
O=C1NCCn2nc(-c3ccncc3)c(-c3ccc(OCc4ccc(C(F)(F)F)cc4)cc3)c21 [Compound 119] | 0.2 µM | 0.316 µM | 280 °C | 6.9 | > 10 µM | 7.2 | 0.398 µM |  |  | 
O=C1NCCn2nc(-c3ccncc3)c(-c3ccc(OCC#Cc4ccccc4)cc3)c21 [Compound 142] | 0.126 µM | 0.126 µM | 245 °C | 6.4 | > 10 µM | 6.9 | 0.398 µM |  |  | 
COc1cc(-c2c(-c3ccnc(N)c3)nn3c2C(=O)N(C)CC3)ccc1OCc1ccc(C(C)C)cc1 [Compound 150] | 0.00794 µM | 0.01 µM |  | 7.4 | > 10 µM | 7.6 | 0.0398 µM |  |  | 
CC(C)c1ccc(COc2ccc(-c3c(-c4ccncc4F)nn4c3C(=O)NCC4)cc2)cc1 [Compound 151] | 0.0316 µM | 0.02 µM |  | 7.1 | > 10 µM | 7.4 | 0.0631 µM |  |  | 
CC(C)c1ccc(COc2ccc(-c3c(-c4ccncn4)nn4c3C(=O)N(CC3(C)COC3)CC4)cc2)cc1 [Compound 163] | 0.126 µM |  |  | 7.1 |  | 7.1 |  | 0.316 µM | > 10 µM | 0.126 µM
CC(C)c1ccc(COc2ccc(-c3c(-c4ccncc4)nn4c3CNCC4)cc2)cc1 [Compound 173] | 0.398 µM |  | 194 °C |  |  | 6.1 |  | 0.316 µM | > 10 µM | 1.58 µM
CC(C)c1ccc(COc2ccc(-c3c(-c4ccncc4)nn4c3CN(C(=O)CN(C)C)CC4)cc2)cc1 [Compound 181] | 0.794 µM |  |  |  |  | 5.7 |  | 1.26 µM | 5.01 µM | 2 µM
CC(C)c1ccc(COc2ccc(-c3c(-c4ccncc4)nn4c3CN(C)CC4)cc2)cc1 [Compound 185] | 0.126 µM |  | 120 °C |  |  | 6.3 |  | 0.158 µM | > 10 µM | 0.794 µM
CC1Cn2nc(-c3ccncc3)c(-c3ccc(OCc4ccc(C5CC5)cc4)cc3)c2C(=O)N1 (centres unmarked) [Compound 189] | 0.0316 µM | 0.0398 µM | 249 °C |  | > 10 µM | 7.1 | 0.2 µM |  |  | 
O=C1c2c(-c3ccc(OCc4ccc(OC(F)(F)F)cc4)cc3F)c(-c3ccncc3)nn2CCN1CCO [Compound 206] | 0.0398 µM |  | 140 °C | ~7.4 | > 10 µM | 7.5 | 0.1 µM |  |  | 
CC(C)c1ccc(COC2CCN(c3c(-c4ccncc4)nn4c3C(=O)N(C)CC4)CC2)cc1 [Compound 215] | 0.126 µM |  | 140 °C | 7.2 |  | 7.0 |  |  | > 10 µM | 0.251 µM
COc1cc(C(C)C)ccc1COc1ccc(-c2c(-c3ccncc3)nn3c2C(=O)NCC3)cc1 [Compound 216] | 0.0631 µM |  | 200 °C | 6.9 | > 10 µM | 7.3 | 0.631 µM |  |  | 
O=C1NCCCn2nc(-c3ccncc3)c(-c3ccc(OCc4ccc(C5CC5)cc4)cc3)c21 [Compound 228] | 0.398 µM |  | 235 °C |  |  | 6.3 |  | 0.501 µM | > 10 µM | 2 µM
CC(C)c1ccc(COc2ccc(-c3c(-c4ccnc(CO)c4)nn4c3C(=O)NCC4)cc2)cc1 [Compound 233] | 0.794 µM |  | 232 °C | 5.9 | > 10 µM | 6.5 | 2.51 µM |  |  | 
